# Source: patent publication US20240294519A1, “PYRROLO[2,3-b]PYRIDINE PGDH INHIBITORS AND METHODS OF MAKING AND USING” (EPIRIUM BIO INC., priority 2021, published 2024)
# Target: T1, 15-PGDH/HPGD (Homo sapiens, UniProt P15428)
# T1 construct: purchased R&D System 5660-DH
# T1 sequence (P15428 1-266): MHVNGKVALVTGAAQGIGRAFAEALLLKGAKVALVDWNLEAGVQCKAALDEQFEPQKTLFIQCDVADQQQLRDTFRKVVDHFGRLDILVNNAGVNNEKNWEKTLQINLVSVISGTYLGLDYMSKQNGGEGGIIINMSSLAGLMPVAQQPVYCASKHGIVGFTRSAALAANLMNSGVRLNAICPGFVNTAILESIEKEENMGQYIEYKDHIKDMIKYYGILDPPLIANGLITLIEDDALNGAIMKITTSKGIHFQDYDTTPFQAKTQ
# Assay: hPGDH inhibitor screening biochemical assay
# Conditions: 10 nM enzyme, 15 μM PGE2, 0.25 mM NAD, fluorescence ex/em 340/485 nm
# Method: A hydroxyprostaglandin dehydrogenase inhibition screening biochemical assay can be performed to assess the synthesized inhibitors provided herein. Provided herein is an exemplary biochemical assay for hPGDH inhibitor screening.
# The in vitro biochemical assay can be performed in white, 384 plates in total 20 μl reaction volume consisting of 10 nM of 15-PGDH/HPGD (R&D System #5660-DH), 15 μM Prostaglandin E2 (Sigma, C8 t #P5640-10 MG) and 0.25 mM β-Nicotinamide adenine dinucleotide sodium salt (Sigma, C8 t #N0632-5G) made in reaction buffer (50 mM Tris-HCl, pH 7.5, 0.01% Tween 20) at 10-point dose response curve for test/tool compounds. Briefly, 5 μl (4×) of compounds solution and 5 μl (final concentration, 10 nM) of enzyme solution is added to white 384 well plates and incubated for 10 mins at 37° C. 5 μl (4×) of […] and 5 μl (4×) of β-Nicotinamide adenine dinucleotide sodium salt is added to the wells and incubated for 10 mins at room temperature. Fluorescence is recorded at ex/em=340 nm/485 nm. The percentage (%) inhibition of enzyme activity was determined relative to positive control (1% DMSO) and IC50 was calculated using GraphPad prism software (four parameter-variable slope equation).
row,IC50,SMILES
1,< 100 nM,Cc1cc(-n2ccc3cc(C(=O)N4CCC(F)(F)CC4)cnc32)ccc1C(=O)O [Compound B-270]
2,< 100 nM,"Nc1nnc(-c2ccc(-n3ccc4cc(C(=O)N5CCC(F)(F)CC5)cnc43)cc2)[nH]1 [Compound B-78, (1-(4-(5-amino-4H-1,2,4-triazol-3-yl)phenyl)-1H-pyrrolo[2,3-b]pyridin-5-yl)(4,4-difluoropiperidin-1-yl)methanone]"
3,< 100 nM,"O=C(O)c1ccc(-n2ccc3cc(C(=O)N4CCC(F)(F)CC4)cnc32)cc1F [Compound B-27, 4-(5-(4,4-difluoropiperidine-1-carbonyl)-1H-pyrrolo[2,3-b]pyridin-1-yl)-2-fluorobenzoic acid]"
4,< 100 nM,CO[C@H]1CCCN(C(=O)c2cnc3c(ccn3-c3ccc(-c4nnc[nH]4)c(Cl)c3)c2)C1 [Compound B-252]
5,100 to 1000 nM,O=C(c1cnc2c(ccn2-c2ccc(N3CCN(c4ccc(-n5ccc6cc(C(=O)N7CCC(F)(F)CC7)cnc65)cn4)C3=O)nc2)c1)N1CCC(F)(F)CC1 [Compound B-13]
6,< 100 nM,"O=C(c1cnc2c(ccn2-c2cncc(-c3n[nH]c(C4CC4)n3)c2)c1)N1CCC(F)(F)CC1 [Compound B-1, (1-(5-(5-cyclopropyl-1H-1,2,4-triazol-3-yl)pyridin-3-yl)-1H-pyrrolo [2,3-b]pyridin-5-yl)(4,4-difluoropiperidin-1-yl)methanone]"
7,< 100 nM,C[C@]1(O)CCCN(C(=O)c2cnc3c(ccn3-c3ccc(-c4nnc[nH]4)cc3)c2)C1 [Compound B-248]
8,< 100 nM,"CC1CN(C(=O)c2cnc3c(ccn3-c3ccc(-c4nc(N)n[nH]4)nc3)c2)CCO1 (centres unmarked) [Compound B-49, (1-(6-(3-amino-1H-1,2,4-triazol-5-yl)pyridin-3-yl)-1H-pyrrolo [2,3-b]pyridin-5-yl)(2-methylmorpholino)methanone]"
9,< 100 nM,CO[C@@H]1CCN(C(=O)c2cnc3c(ccn3-c3ccc(-c4ncn[nH]4)nc3)c2)C1 [Compound B-44]
10,< 100 nM,CN(C)c1nnc(-c2cccc(-n3ccc4cc(C(=O)N5CCC(F)(F)CC5)cnc43)c2)[nH]1 [Compound B-73]
11,< 100 nM,CC1(O)CCCN(C(=O)c2cnc3c(ccn3-c3cc(F)cc(-c4nnc[nH]4)c3)c2)C1 (centres unmarked) [Compound B-241]
12,100 to 1000 nM,O=C(c1cnc2c(ccn2-c2ccc(-c3nnc[nH]3)c(Cl)c2)c1)N1CC[S+]([O-])CC1 [Compound B-261]
13,< 100 nM,C[C@H]1CCCN(C(=O)c2cnc3c(ccn3-c3ccc4nc(N)nn4c3)c2)C1 [Compound B-29]
14,< 100 nM,"CCC1CCCN(C(=O)c2cnc3c(ccn3-c3cncc(NC(=O)OC)c3)c2)C1 (stereo in doubt) [Compound B-69, methyl(R)-(5-(5-(3-ethylpiperidine-1-carbonyl)-1H-pyrrolo[2,3-b]pyridin-1-yl)pyridin-3-yl)carbamate]"
15,< 100 nM,"O=C(c1cnc2c(ccn2-c2cnc(-c3ncn[nH]3)nc2)c1)N1CCC(F)(F)CC1 [Compound B-45, (1-(2-(1H-1,2,4-triazol-5-yl)pyrimidin-5-yl)-1H-pyrrolo[2,3-b]pyridin-5-yl)(4,4-difluoropiperidin-1-yl)methanone]"
16,< 100 nM,"COc1ccc(Cn2cc(-c3cncc(-n4ccc5cc(C(=O)N6CCC(F)(F)CC6)cnc54)c3)nc2C)cc1 [Compound B-23, (4,4-difluoropiperidin-1-yl)(1-(5-(1-(4-methoxybenzyl)-2-methyl-1H-imidazol-4-yl)pyridin-3-yl)-1H-pyrrolo [2,3-b]pyridin-5-yl)methanone]"
17,< 100 nM,"CC1CN(C(=O)c2cnc3c(ccn3-c3ccc(-c4ncn[nH]4)nc3)c2)CC(C)O1 (centres unmarked) [Compound B-47, (1-(6-(1H-1,2,4-triazol-5-yl)pyridin-3-yl)-1H-pyrrolo[2,3-b]pyridin-5-yl)(2,6-dimethylmorpholino) methanone]"
18,< 100 nM,Cc1nnc(-c2ccc(-n3ccc4cc(C(=O)N5CCC(F)(F)CC5)cnc43)cc2)[nH]1 [Compound B-74]
19,< 100 nM,"O=C(c1cnc2c(ccn2-c2ccc(-c3nc[nH]n3)cn2)c1)N1CCC(F)(F)CC1 [Compound B-34, (1-(5-(1H-1,2,4-triazol-3-yl)pyridin-2-yl)-1H-pyrrolo[2,3-b]pyridin-5-yl)(4,4-difluoropiperidin-1-yl)methanone]"

row,IC50,SMILES
1,< 100 nM,Cc1cc(-n2ccc3cc(C(=O)N4CCC(F)(F)CC4)cnc32)ccc1-c1nnc[nH]1 [Compound B-255]
2,< 100 nM,O=C(c1cnc2c(ccn2-c2cc(Cl)cc(-c3nnc[nH]3)c2)c1)N1CCSCC1 [Compound B-251]
3,< 100 nM,"C[C@H]1CCCN(C(=O)c2cnc3c(ccn3-c3cccc(-c4nc[nH]n4)c3)c2)C1 [Compound B-37, (S)-(1-(3-(1H-1,2,4-triazol-3-yl)phenyl)-1H-pyrrolo[2,3-b]pyridin-5-yl)(3-methylpiperidin-1-yl)methanone]"
4,< 100 nM,"Cc1nnc(-c2cncc(-n3ccc4cc(C(=O)N5CCC(F)(F)CC5)cnc43)c2)[nH]1 [Compound B-22, (4,4-difluoropiperidin-1-yl) (1-(5-(5-methyl-4H-1,2,4-triazol-3-yl)pyridin-3-yl)-1H-pyrrolo[2,3-b]pyridine-5-yl) methanone]"
5,< 100 nM,O=C(c1cnc2c(ccn2-c2ccc(-c3nnc[nH]3)nc2)c1)N1CCC2(CC1)CC2 [Compound B-56]
6,< 100 nM,CC1(O)CCCN(C(=O)c2cnc3c(ccn3-c3ccc(-c4nnc[nH]4)c(F)c3)c2)C1 (centres unmarked) [Compound B-239]
7,< 100 nM,CO[C@H]1CCCN(C(=O)c2cnc3c(ccn3-c3cc(Cl)cc(-c4nnc[nH]4)c3)c2)C1 [Compound B-250]
8,< 100 nM,Nc1nc2ccc(-n3ccc4cc(C(=O)N5CCC(F)(F)CC5)cnc43)cn2n1 [Compound B-12]
9,< 100 nM,C[C@@]1(O)CCCN(C(=O)c2cnc3c(ccn3-c3cccc(-c4nnc[nH]4)c3)c2)C1 [Compound B-244]
10,< 100 nM,CC(C)c1nnc(-c2ccc(-n3ccc4cc(C(=O)N5CCC(F)(F)CC5)cnc43)cc2)[nH]1 [Compound B-58]
11,< 100 nM,"CC(C)(C)Nc1nc(-c2cncc(-n3ccc4cc(C(=O)N5CCC(F)(F)CC5)cnc43)c2)no1 [Compound B-20, (1-(5-(5-(tert-butylamino)-1,2,4-oxadiazol-3-yl)pyridin-3-yl)-1H-pyrrolo[2,3-b]pyridin-5-yl)(4,4-difluoropiperidin-1-yl)methanone]"
12,< 100 nM,C[C@@H]1CN(C(=O)c2cnc3c(ccn3-c3ccc(N4CCOC4=O)nc3)c2)CCC1(F)F [Compound B-75]
13,< 100 nM,C[C@H]1CCN(C(=O)c2cnc3c(ccn3-c3ccc(C(=O)O)cc3)c2)C1 [Compound B-7]
14,< 100 nM,O=C(c1cnc2c(ccn2-c2cc(Cl)cc(-c3nnc[nH]3)c2)c1)N1CCC[C@H](O)C1 [Compound B-265]
15,< 100 nM,CC(C)OC(=O)Nc1cncc(-n2ccc3cc(C(=O)N4CCSCC4)cnc32)c1 [Compound B-256]
16,100 to 1000 nM,O=C(c1cnc2c(ccn2-c2cnn(CC(F)(F)F)c2)c1)N1CCCC(C(F)(F)F)C1 (centres unmarked) [Compound B-59]
17,100 to 1000 nM,COCCn1cc(-n2ccc3cc(C(=O)N4CCC(F)(F)CC4)cnc32)cn1 [Compound B-62]
18,< 100 nM,O=C(c1cnc2c(ccn2-c2ccc(-c3nnc[nH]3)cc2)c1)N1CCC[C@@H](C(F)(F)F)C1 [Compound B-228]
19,< 100 nM,C[C@H]1CCN(C(=O)c2cnc3c(ccn3-c3ccc(-c4ncn[nH]4)nc3)c2)C1 [Compound B-41]
